Measured values from patent US8569264B2, “Antibacterial 4,5-substituted aminoglycoside analogs having multiple substituents” (ISIS Pharmaceuticals, Inc., priority 2005, dated 2013).
≈ marks a conversion by molar mass, not a printed value. Where two headings read alike, the source gives them in different places.

Key:
[1] = target: 16S ribosomal subunit RNA target; test: Mass spectrometry based binding assay (FTICR), 16S
Method: In a typical experiment, 10 μL of an aqueous solution containing 100 mM ammonium acetate buffer, […], and 33% isopropyl alcohol (to aid ion desolvation) was prepared with different concentrations of each ligand or ligand mixture Samples were introduced into the electrospray ionization source (negative ionization mode) at 1 μL/min and ions were stored for 1 sec in an RF-only hexapole following desolvation. The abundances were integrated from the respective ions for free RNA and the ligand-RNA complex. The primary (1:1 RNA:ligand) and secondary (1:2 complex, if observed). […] The peak ratios were measured at each concentration, then a plot of complex/free RNA versus concentration of ligand added was fitted to a second (or higher) order binding polynomial to determine the KD.

[2] = system: E. coli S30 bacterial extract (pBestLuc firefly luciferase reporter); test: Coupled bacterial transcription/translation assay; type: biochemical; conditions: read-out: Trans/Trans IC50
Method: The DNA template, pBestLuc™ (Promega), is a plasmid containing a reporter gene for firefly luciferase fused to a strong tac promoter and ribosome binding site. Messenger RNA from 1 μg pBestLuc is transcribed and translated in E. coli S30 bacterial extract in the presence or absence of test compound. Compounds are tested in a black 96 well microtiter plate with an assay volume of 35 μL. […] The transcription/translation reaction is incubated for 35 minutes at 37° C. followed by detection of functional luciferase with the addition of 30 μL LucLite™ (Packard). Light output is quantitated on a Packard TopCount.

[3] = system: E. Coli; test: MIC, E. Coli; type: cell-based
Method: (§1) The MIC assays are carried out in 150 μL volume in duplicate in 96-well clear flat-bottom plates. The bacterial suspension from an overnight culture growth in appropriate medium is added to a solution of test compound in 4% DMSO in water. Final bacterial inoculum is approximately 10^5-10^6 CFU/well. […] Both ampicillin and tetracycline are used as antibiotic-positive controls in each screening assay for S. pyogenes, E. coli imp-, E. coli, S. aureus, E. faecalis, K. pneumoniae and P. vulgaris. Ciprofloxacin is used as an antibiotic positive control in each screening assay for P. aeruginosa.

[4] = system: S. Aureus; test: MIC, S. Aureus; type: cell-based
Method: as §1

[5] = target: 18S ribosomal subunit RNA target; test: Mass spectrometry based binding assay (FTICR), 18S
Method: In a typical experiment, 10 μL of an aqueous solution containing 100 mM ammonium acetate buffer, 2.5 or 5 μM of each RNA, and 33% isopropyl alcohol (to aid ion desolvation) was prepared with different concentrations of each ligand or ligand mixture Samples were introduced into the electrospray ionization source (negative ionization mode) at 1 μL/min and ions were stored for 1 sec in an RF-only hexapole following desolvation. The abundances were integrated from the respective ions for free RNA and the ligand-RNA complex. The primary (1:1 RNA:ligand) and secondary (1:2 complex, if observed). […] The peak ratios were measured at each concentration, then a plot of complex/free RNA versus concentration of ligand added was fitted to a second (or higher) order binding polynomial to determine the KD.

[6] = system: Staphylococcus aureus (Smith Strain ATCC 13709); test: Staphylococcus aureus mouse protection assay; type: in vivo, mice; conditions: Staph Conc. 10^6, 10% Mucin, the 13th table
Method: Two of the novel aminoglycoside compounds of the invention were examined for their anitbacterial activity against staphylococcus aureus. Mice were fed with autoclaved commercial food pellets and sterile water ad libitum. Animals were inoculated intraperitoneally with 0.5 mL/mouse of the indicated concentration of S. aureus (ATCC 13709) containing 10% mucin. There were 10 mice in each treatment group and compounds were administered subcutaneously one and 3 hour after infection. Compounds 15a (R4═R5═CH3) and 15j (R4═H, R5═(CH2)2C6H5)) were used at 75 mg/kg, 37.5 mg/kg, 18.8 mg/kg, 9.4 mg/kg, 4.7 mg/kg, 2.3 mg/kg, 1.17 mg/kg and 0.5 mg/kg. Amakacin, paromomycin and neomycin were used as the positive controls at concentrations of 2 mg/kg, 1 mg/kg and 0.5 mg/kg.
Test compound was administered as an aqueous buffer solution (phosphate buffered saline (PBS), pH=7.4).

[7] = FTICR mass spectrometry, run at 100 nM RNA, Example 105
[8] = FTICR mass spectrometry, Example 105
[9] = marked with an asterisk: run at 500 nM RNA, Example 105

Structure (SMILES): NCCNCCOC1C(OC2C(O)C(N)CC(N)C2OC2OC(CO)C(O)C(O)C2N)OC(CO)C1OC1OC(CN)C(O)C(O)C1N (centres unmarked) [Compound 9d]
- Kd [1, 7]: 700 nM
- IC50 ([2]; Example 105): 300 nM
- MIC E. Coli. ([3]; Example 105): 6 to 12 µM
- MIC S. Aureus ([4]; Example 105): 2 to 3 µM

Structure (SMILES): NCC1OC(OC2C(CO)OC(OC3C(O)C(N)CC(N)C3OC3OC(CO)C(O)C(O)C3N)C2OCCNC2CCCCC2)C(N)C(O)C1O (centres unmarked) [Compound 9n]
- Kd [5, 8]: 400 nM
- Kd [1, 7]: 100 nM
- IC50 ([2]; Example 105): 200 nM
- MIC E. Coli. ([3]; Example 105): 3 to 6 µM
- MIC S. Aureus ([4]; Example 105): 3 to 5 µM

Structure (SMILES): NC[C@@H]1O[C@H](O[C@H]2[C@@H](O)[C@H](O[C@@H]3[C@@H](O)[C@H](N)C[C@H](N)[C@H]3O[C@H]3O[C@H](CN)[C@@H](O)[C@H](O)[C@H]3N)O[C@@H]2CO)[C@H](N)[C@@H](O)[C@@H]1O [Neomycin B, reference compound]
- Kd ([5]; Example 106): 300 nM
- Kd ([1]; Example 106): 40 nM
- IC50 ([2]; Example 106): 200 nM

Structure (SMILES): NCC1OC(OC2C(CO)OC(OC3C(O)C(N)CC(N)C3OC3OC(CO)C(O)C(O)C3N)C2OCCNc2cnc3ccccc3c2)C(N)C(O)C1O (centres unmarked) [Compound 9m]
- Kd [5, 8]: 900 nM
- Kd [1, 7]: 100 nM
- IC50 ([2]; Example 105): 100 nM
- MIC E. Coli. ([3]; Example 105): 12 to 25 µM
- MIC S. Aureus ([4]; Example 105): 1 to 2 µM

Structure (SMILES): NC[C@@H]1O[C@H](O[C@H]2[C@@H](OCCO)[C@H](O[C@@H]3[C@@H](O)[C@H](N)C[C@H](N)[C@H]3O[C@H]3O[C@H](CO)[C@@H](O)[C@H](O)[C@H]3N)O[C@@H]2CO)[C@H](N)[C@@H](O)[C@@H]1O [Compound 12a]
- Kd [5, 8]: 7300 nM
- Kd [1, 7]: 900 nM
- IC50 ([2]; Example 105): 100 nM
- MIC E. Coli. ([3]; Example 105): 12 to 25 µM
- MIC S. Aureus ([4]; Example 105): 6 to 12 µM

Structure (SMILES): CC(=O)N(CCOC1C(OC2C(O)C(N)CC(N)C2OC2OC(CO)C(O)C(O)C2N)OC(CO)C1OC1OC(CN)C(O)C(O)C1N)CCc1ccccc1 (centres unmarked) [Compound 11]
- Kd ([5]; Example 106): 6100 nM
- Kd ([1]; Example 106): 1500 nM
- IC50 ([2]; Example 106): 400 nM
- MIC E. Coli. ([3]; Example 106): 10 to 20 µM
- MIC S. Aureus ([4]; Example 106): 1 to 3 µM

Structure (SMILES): CN(C)CCOC1C(OC2C(O)C(N)CC(N)C2OC2OC(CO)C(O)C(O)C2N)OC(CO)C1OC1OC(CN)C(O)C(O)C1N (centres unmarked) [Compound 9g]
- Kd [1, 9]: 900 nM
- IC50 ([2]; Example 105): 200 nM
- MIC E. Coli. ([3]; Example 105): 12 to 52 µM
- MIC S. Aureus ([4]; Example 105): 6 to 12 µM

Structure (SMILES): NCC1OC(OC2C(CF)OC(OC3C(O)C(N)CC(N)C3OC3OC(CO)C(O)C(O)C3N)C2O)C(N)C(O)C1O (centres unmarked) [Compound 61, 5″-deoxy-5″-fluoro paromomycin]
- Kd [1, 7]: 1100 nM
- IC50 ([2]; Example 105): 300 nM
- MIC ([3]; Escherichia coli, Example 105): > 50 µM
- MIC ([4]; Staphylococcus aureus, Example 105): 12 to 25 µM (≈ 7.41 to 15.4 µg/mL)

Structure (SMILES): NCCN(CCN)CCOC1C(OC2C(O)C(N)CC(N)C2OC2OC(CO)C(O)C(O)C2N)OC(CO)C1OC1OC(CN)C(O)C(O)C1N (centres unmarked) [Compound 9h]
- Kd [1, 7]: 9200 nM
- IC50 ([2]; Example 105): 1000 nM
- MIC E. Coli. ([3]; Example 105): >50 µM
- MIC S. Aureus ([4]; Example 105): 25 to 50 µM

Structure (SMILES): NCCOC1C(OC2C(O)C(N)CC(N)C2OC2OC(CO)C(O)C(O)C2N)OC(CO)C1OC1OC(CN)C(O)C(O)C1N (centres unmarked) [Compound 9f]
- Kd [1, 7]: 300 nM
- IC50 ([2]; Example 105): 400 nM
- MIC E. Coli. ([3]; Example 105): 12 to 25 µM
- MIC S. Aureus ([4]; Example 105): 2 to 3 µM

Structure (SMILES): NCCCNCCOC1C(OC2C(O)C(N)CC(N)C2OC2OC(CO)C(O)C(O)C2N)OC(CO)C1OC1OC(CN)C(O)C(O)C1N (centres unmarked) [Compound 9c]
- Kd [1, 9]: 400 nM
- IC50 ([2]; Example 105): 300 nM
- MIC E. Coli. ([3]; Example 105): 25 to 50 µM
- MIC S. Aureus ([4]; Example 105): 3 to 6 µM

Structure (SMILES): NCC[C@H](O)C(=O)N[C@@H]1C[C@H](N)[C@@H](O[C@H]2O[C@H](CN)[C@@H](O)[C@H](O)[C@H]2O)[C@H](O)[C@H]1O[C@H]1O[C@H](CO)[C@@H](O)[C@H](N)[C@H]1O [Amikacin, reference compound]
- # Dead mice/Total mice in group ([6]; 0.5 mg/kg subcutaneously): 8/10
- # Dead mice/Total mice in group ([6]; 1 mg/kg subcutaneously): 10/10
- # Dead mice/Total mice in group ([6]; 2 mg/kg subcutaneously): 8/10
